Measured values from paper PMC11489133, “Obicetrapib exhibits favorable physiochemical and pharmacokinetic properties compared to previous cholesteryl ester transfer protein inhibitors: An integrated summary of results from non‐human primate studies and clinical trials” (Pharmacology Research & Perspectives, 2024).
Read-outs that look alike come from different tables or passages of the source.

Tests used:
[1] = pH 7.4; cited from earlier work
[2] = cited from earlier work
[3] = cited from earlier work; remark: listed apart in the source
[4] = cited from earlier work; remark: listed apart in the source
[5] = absorption, metabolism and excretion study of a single 10 mg dose of 14C-obicetrapib (NCT02408055, TA‐8995‐07); assay type: in vivo, humans; settings: male, human, in vivo
Description: Figure 2 illustrates the obicetrapib (TA‐8995) M1 detected above the LLOQ (>1% radioactivity) in human plasma expressed as the percent radioactivity profiled. A study (NCT02408055) was conducted in healthy male participants (n = 6) to assess the absorption, metabolism, and excretion of a single dose of 10 mg of ^14C‐obicetrapib (TA‐8995‐07 CSR, NewAmsterdam Pharma). One of the objectives of the study was to determine the chemical structure of ^14C‐obicetrapib M1 that represent ≥10% of total radioactivity in plasma. The participants received 10 mL ^14C‐obicetrapib oral suspension, containing 10 mg and 100 μCi of ^14C‐obicetrapib in the fasted state. Clinical samples for analysis were selected based upon the levels of radioactivity present as determined by liquid scintillation counting and were stored at below −50°C (nominally −80°C) when not in use. Plasma samples from the participants were sequentially extracted with acetonitrile at five time points. The resulting extracts were concentrated by evaporation and reconstituted in mobile phase HPLC prior to analysis by radio‐HPLC. All samples were analyzed by liquid scintillation counting to evaluate the recovery of radioactivity. The profiles of the radiolabeled components in each sample of plasma were determined by HPLC analysis with off‐line radio‐detection. Selected samples from each matrix were then further analyzed by high‐resolution mass spectrometry to investigate the identity of M1. In plasma, the predominant metabolite component was unchanged obicetrapib (~79% of total drug‐related exposure), and the most abundant plasma M1 were M1 and P9 of which each accounted for ~4% of total exposure (Figure 2). No significant differences in the metabolite profiles were observed across the samples obtained from the six participants (TA‐8995‐07 CSR, NewAmsterdam Pharma).

[6] = parameters: method as in PMID 28847206; settings: added to high‐intensity statin therapy, compared to placebo; cited from earlier work

Row | Compound | cLogDpH7.4 [1] | accumulation in adipose tissue ([2]; human, in vivo) | PSA [3] | increase of C max by a high‐fat meal compared to fasting conditions [4] | percent radioactivity profiled in human plasma [5] | further results
1 | Cc1cc(C)c2c(c1)[C@@H](N(Cc1cc(C(F)(F)F)cc(C(F)(F)F)c1)c1nnn(C)n1)CCCN2C[C@H]1CC[C@H](C(=O)O)CC1 [evacetrapib, Evacetrapib] | 7.9 | no accumulation in adipose tissue | 87 Å^2 | 1.5 fold |  | t 1/2 ([2]; once daily doses between 10 and 600 mg for up to 15 days): 40 h; increase of AUC(τ) by a high‐fat meal compared to fasting conditions [4]: 1.4 fold
2 | O=C(O)COc1cnc(NCc2cc(C(F)(F)F)cc(C(F)(F)F)c2)nc1 [P9] |  |  |  |  | approx. 4% | 
3 | CCC1CC(N(Cc2cc(C(F)(F)F)cc(C(F)(F)F)c2)c2ncc(OCCCC(=O)O)cn2)c2cc(C(F)(F)F)ccc2N1 (stereo not drawn) [M1] |  |  |  |  | approx. 4% | 
4 | CCOC(=O)N1c2ccc(C(F)(F)F)cc2[C@@H](N(Cc2cc(C(F)(F)F)cc(C(F)(F)F)c2)C(=O)OC)C[C@H]1CC [torcetrapib, Torcetrapib] | 7.6 | no accumulation in adipose tissue | 59 Å^2 |  |  | t 1/2 ([2]; single ascending dose study): 211 h
5 | CCC(CC)CC1(C(=O)Nc2ccccc2SC(=O)C(C)C)CCCCC1 [dalcetrapib, Dalcetrapib] | 7.2 |  | 46 Å^2 | 2.3 fold |  | t 1/2 ([2]; once daily doses between 300 and 1200 mg, short‐term investigations): 30 h; accumulation in adipose tissue ([2]; other CETP inhibitors): no accumulation in adipose tissue; increase of AUC(0–36) by a high‐fat meal compared to fasting conditions [4]: 1.6 fold
6 | COc1cc(F)c(C(C)C)cc1-c1ccc(C(F)(F)F)cc1CN1C(=O)O[C@H](c2cc(C(F)(F)F)cc(C(F)(F)F)c2)[C@@H]1C [anacetrapib, Anacetrapib] | 9.2 |  | 39 Å^2 |  |  | reduced risk of major adverse coronary events [6]: 9%; time detected in plasma after the last treatment dose ([2]; 76‐week DEFINE trial): up to 4 years; half‐life ([2]; human, in vivo): up to 80 h; accumulation in adipose tissue ([2]; subcutaneous adipose biopsy measurements, compared to plasma levels): accumulated in adipose tissue at much higher concentrations and for a prolonged period; increase in plasma levels, fed versus fasted state ([4]; in vivo): 2-8 fold; increase of AUC (0‐∞) by a high‐fat meal compared to a fasting state ([4]; in vivo): 6 fold; increase of C max by a high‐fat meal compared to a fasting state ([4]; in vivo): 8 fold
